{"source": "paper PMC10065799", "about": "“High-throughput profiling of sequence recognition by tyrosine kinases and SH2 domains using bacterial peptide display” (eLife, 2023)", "experiment_in_all_cases": "pTyr-Var library bacterial peptide display kinase screen (enrichment scores)", "key": {"c-Src kinase domain": {"molecular_target": "c-Src kinase domain (Homo sapiens, UniProt P12931)", "type": "biochemical"}, "c-Abl kinase domain": {"molecular_target": "T1, c-Abl kinase domain (Mus musculus, UniProt P00520)", "T1 sequence (P00520 242-493 limits assumed)": "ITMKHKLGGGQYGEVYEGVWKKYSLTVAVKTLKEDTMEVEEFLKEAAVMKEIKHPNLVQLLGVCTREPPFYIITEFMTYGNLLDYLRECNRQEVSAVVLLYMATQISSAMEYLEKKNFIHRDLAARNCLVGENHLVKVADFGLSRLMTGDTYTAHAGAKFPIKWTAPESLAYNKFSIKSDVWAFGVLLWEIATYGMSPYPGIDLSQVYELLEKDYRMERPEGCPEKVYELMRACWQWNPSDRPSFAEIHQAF", "type": "biochemical"}, "Fer kinase domain": {"tested_on": "Fer kinase domain", "type": "biochemical, mouse", "conditions": "sheet \"Fer\""}, "EPHB1 kinase domain": {"tested_on": "EPHB1 kinase domain", "type": "biochemical, human", "conditions": "sheet EPHB1; effect of the variant peptide relative to its reference peptide in the pTyr-Var library screen (enrichment scores)"}, "EPHB2 kinase domain": {"tested_on": "EPHB2 kinase domain", "type": "biochemical, human", "conditions": "sheet EPHB2"}, "[1]": {"conditions": "sheet \"Src\", effect of the variant peptide relative to its reference peptide in the pTyr-Var library screen"}, "[2]": {"conditions": "fig5-data2, sheet \"Abl\", Screen for the variant/reference peptide pair, pTyr-Var library"}, "[3]": {"conditions": "sheet \"Abl\", effect of variant peptide relative to its reference peptide in pTyr-Var library screen (enrichment)"}, "[4]": {"conditions": "value of the variant peptide against its reference peptide in the pTyr-Var library screen with Fer"}, "[5]": {"conditions": "effect of variant peptide relative to its reference peptide in the pTyr-Var library screen (enrichment scores)"}, "[6]": {"conditions": "variant peptide relative to its reference peptide, pTyr-Var library screen enrichment"}, "[7]": {"conditions": "sheet \"Src\", variant peptide versus its reference peptide in the pTyr-Var library screen"}}, "note": "Read-outs that look alike come from different tables or passages of the source.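 Note: log2 fold change in enrichment of variant over reference.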"}
{"sequence": "EGDGVYTLNDE [HP_Y125_N129D]", "values": [{"measurement": "Screen", "setting": "c-Src kinase domain; [1]", "value": -0.1677}]}
{"sequence": "KQMEQYMSFHK [HCN1_Y417_V414M]", "values": [{"measurement": "Screen", "setting": "c-Src kinase domain; [1]", "value": 0.2609}]}
{"sequence": "GFPVHYTGVSN [DNMT3B_Y815_D817G]", "values": [{"measurement": "Screen", "setting": "c-Abl kinase domain; [2]", "value": 0.7985}]}
{"sequence": "AERKLYRNVML [ZNF569_Y33_Q29E]", "values": [{"measurement": "Screen", "setting": "c-Abl kinase domain; [3]", "value": 1.464}]}
{"sequence": "HQKKPYCHTHN [NRAP_Y53_A56T]", "values": [{"measurement": "Screen", "setting": "Fer kinase domain; [4]", "value": 0.08502}, {"measurement": "Screen", "setting": "EPHB1 kinase domain", "value": 0.5433}]}
{"sequence": "LICRRYLVMQR [IL3RA_Y328_V323L]", "values": [{"measurement": "Screen", "setting": "c-Abl kinase domain; [2]", "value": 0.743}, {"measurement": "Screen", "setting": "EPHB2 kinase domain; [5]", "value": 1.326}]}
{"sequence": "TWEKPYECVQC [ZNF24_Y335_G331W]", "values": [{"measurement": "Screen", "setting": "c-Abl kinase domain; [3]", "value": -4.858}, {"measurement": "Screen", "setting": "Fer kinase domain; [6]", "value": 1.366}]}
{"sequence": "KTSGNYLPVTG [WDR19_Y28_A30P]", "values": [{"measurement": "Screen", "setting": "c-Abl kinase domain; [3]", "value": -2.37}]}
{"sequence": "HICTAYKLVLA [DHCR24_Y190_E191K]", "values": [{"measurement": "Screen", "setting": "c-Src kinase domain; [1]", "value": -1.13}, {"measurement": "Screen", "setting": "Fer kinase domain; [4]", "value": -2.51}, {"measurement": "Screen", "setting": "EPHB2 kinase domain; [5]", "value": 0.4857}]}
{"sequence": "HFVDEYDRTIE [KRAS_Y32_P34R]", "values": [{"measurement": "Screen", "setting": "c-Abl kinase domain; [2]", "value": 1.156}]}
{"sequence": "TVSQPYSFIEF [SEC22B_Y110_R108Q]", "values": [{"measurement": "Screen", "setting": "c-Src kinase domain; [7]", "value": 0.852}, {"measurement": "Screen", "setting": "Fer kinase domain; [6]", "value": 0.7571}]}
{"sequence": "RSSNTYTLMDV [ALCAM_Y298_T301M]", "values": [{"measurement": "Screen", "setting": "c-Src kinase domain; [1]", "value": -0.02147}]}
{"sequence": "ANARMYGVLPW [PLP1_Y207_D203N]", "values": [{"measurement": "Screen", "setting": "c-Src kinase domain; [7]", "value": -0.7799}, {"measurement": "Screen", "setting": "EPHB2 kinase domain; [5]", "value": -1.895}]}
{"sequence": "LRSKQYLRNPP [SHC1_Y315_F312S]", "values": [{"measurement": "Screen", "setting": "c-Abl kinase domain; [3]", "value": -0.3171}, {"measurement": "Screen", "setting": "EPHB2 kinase domain; [5]", "value": -1.743}]}
{"sequence": "HILFRYPKEFQ [IDS_Y234_P231L]", "values": [{"measurement": "Screen", "setting": "c-Src kinase domain; [1]", "value": 0.8356}]}
{"sequence": "LFLASYCIGGG [UBD_Y161_C160S]", "values": [{"measurement": "Screen", "setting": "c-Abl kinase domain; [3]", "value": 1.114}]}
{"sequence": "PNLILYGDFRQ [MYH7_Y715_R712L]", "values": [{"measurement": "Screen", "setting": "c-Src kinase domain; [7]", "value": -0.8884}]}
{"sequence": "IFGVSYGEFRF [CFTR_Y512_D513G_YF]", "values": [{"measurement": "Screen", "setting": "c-Src kinase domain; [1]", "value": 1.211}, {"measurement": "Screen", "setting": "Fer kinase domain; [4]", "value": -1.628}]}
{"sequence": "LKVQVYILGRE [ASS1_Y359_G356V]", "values": [{"measurement": "Screen", "setting": "Fer kinase domain; [4]", "value": 1.05}]}
{"sequence": "WNDPDYMDSRR [GAA_Y407_L405P]", "values": [{"measurement": "Screen", "setting": "c-Abl kinase domain; [2]", "value": -1.862}]}
{"sequence": "CPASVYTKRCS [CPT2_Y508_R503C]", "values": [{"measurement": "Screen", "setting": "c-Abl kinase domain; [2]", "value": -1.448}]}
{"sequence": "QADIIYVNTQL [MERTK_Y872_V870I]", "values": [{"measurement": "Screen", "setting": "Fer kinase domain; [4]", "value": -0.9597}, {"measurement": "Screen", "setting": "EPHB1 kinase domain", "value": -0.9888}]}
{"sequence": "TNEFEYDELIV [TGM1_Y136_D132N_YF]", "values": [{"measurement": "Screen", "setting": "EPHB2 kinase domain; effect of the variant relative to its reference peptide in the pTyr-Var library screen", "value": -2.123}]}
{"sequence": "CHKRTYKVTGL [TTN_Y21853_C21851R]", "values": [{"measurement": "Screen", "setting": "c-Abl kinase domain; [3]", "value": -1.801}]}
{"sequence": "SSEILYHIIKG [CDH17_Y489_K486E]", "values": [{"measurement": "Screen", "setting": "c-Src kinase domain; [1]", "value": 3.183}]}
{"sequence": "DEWFLYKMRDI [CPS1_Y879_K875E]", "values": [{"measurement": "Screen", "setting": "c-Abl kinase domain; [2]", "value": -2.954}]}
{"sequence": "PINLFYLMDLS [ITGB2_Y131_D128N_YF]", "values": [{"measurement": "Screen", "setting": "c-Src kinase domain; [1]", "value": -0.4123}]}
{"sequence": "GHMFAYDWISI [BEST1_Y227_L224M_YF]", "values": [{"measurement": "Screen", "setting": "Fer kinase domain; [4]", "value": -0.1339}]}
{"sequence": "ENELTYFCFKK [CD59_Y86_C89Y_YF]", "values": [{"measurement": "Screen", "setting": "c-Src kinase domain; [1]", "value": 1.06}]}
{"sequence": "TLGPFYPSLLF [CRYAA_Y18_R21L]", "values": [{"measurement": "Screen", "setting": "c-Abl kinase domain; [2]", "value": 1.059}]}
{"sequence": "FSQETYFRVSN [ABCD1_Y180_Q178E_YF]", "values": [{"measurement": "Screen", "setting": "c-Src kinase domain", "value": 0.7032}]}
{"sequence": "RSACTYLAPHL [PLK3_Y615_S618P]", "values": [{"measurement": "Screen", "setting": "c-Src kinase domain; [7]", "value": 2.785}, {"measurement": "Screen", "setting": "EPHB1 kinase domain", "value": 2.327}]}
{"sequence": "PVDGEYFTLQI [TP53_Y327_L323V]", "values": [{"measurement": "Screen", "setting": "c-Src kinase domain; [7]", "value": -0.1089}]}
{"sequence": "HLTLVYGGIFL [FBP1_Y259_R255L]", "values": [{"measurement": "Screen", "setting": "c-Src kinase domain; [1]", "value": -0.5188}]}
{"sequence": "EFFDGYWEFSV [ITGA2B_Y265_G267E_YF]", "values": [{"measurement": "Screen", "setting": "c-Src kinase domain; [1]", "value": 0.01389}]}
{"sequence": "VPVPGYTKVPE [SPRR3_Y146_L149V]", "values": [{"measurement": "Screen", "setting": "c-Abl kinase domain; [3]", "value": 2.059}]}
{"sequence": "RQIQSYTCEID [DES_Y331_H326R]", "values": [{"measurement": "Screen", "setting": "c-Abl kinase domain; [2]", "value": 0.08274}]}
{"sequence": "QADVVYVNTQL [MERTK_Y872_I871V]", "values": [{"measurement": "Screen", "setting": "Fer kinase domain; [4]", "value": -1.343}, {"measurement": "Screen", "setting": "EPHB1 kinase domain", "value": -1.929}]}
{"sequence": "PFSSPYENSLI [EPOR_Y489_N487S_YF]", "values": [{"measurement": "Screen", "setting": "Fer kinase domain; [4]", "value": 0.2958}]}
{"sequence": "QHVPDYRQNGF [PCDHGA6_Y891_V895G_YF]", "values": [{"measurement": "Screen", "setting": "c-Abl kinase domain; [2]", "value": 0.1057}]}
{"sequence": "GLQDEYDFKCK [STAT1_Y170_D165G]", "values": [{"measurement": "Screen", "setting": "c-Abl kinase domain; [3]", "value": -1.133}]}
{"sequence": "VWHRRYKHTHE [CTCF_Y343_R339W]", "values": [{"measurement": "Screen", "setting": "c-Abl kinase domain; [2]", "value": -0.9062}]}
{"sequence": "RVFRDYVLKSA [HTATIP2_Y111_D108Y_YF]", "values": [{"measurement": "Screen", "setting": "c-Abl kinase domain; [2]", "value": -1.327}]}
{"sequence": "TEIGQYGNGLK [MORC2_Y100_Q96E]", "values": [{"measurement": "Screen", "setting": "c-Abl kinase domain; [2]", "value": -0.8794}]}
{"sequence": "QELRRYLESGV [MICA_Y194_K196E]", "values": [{"measurement": "Screen", "setting": "EPHB2 kinase domain; [5]", "value": 0.3004}]}
{"sequence": "SRDDFYETIAM [NPY1R_Y347_D346Y_YF]", "values": [{"measurement": "Screen", "setting": "Fer kinase domain; [4]", "value": 2.699}]}
{"sequence": "LIGTPYWMAPE [PAK5_Y608_V604I]", "values": [{"measurement": "Screen", "setting": "c-Src kinase domain; [7]", "value": -0.06712}]}
{"sequence": "HLVLNYGVCIC [JAK2_Y613_V617I]", "values": [{"measurement": "Screen", "setting": "EPHB1 kinase domain", "value": -0.07338}]}
{"sequence": "NTEGGYCCICA [CRELD1_Y328_R329C]", "values": [{"measurement": "Screen", "setting": "c-Abl kinase domain; [2]", "value": -0.2438}]}
{"sequence": "RTTIHYNFMCN [TP53_Y234_C229R_YF]", "values": [{"measurement": "Screen", "setting": "c-Abl kinase domain; [3]", "value": 1.254}]}
{"sequence": "VVRSLYEDLED [VHL_Y185_I180V]", "values": [{"measurement": "Screen", "setting": "c-Abl kinase domain; [3]", "value": -2.047}]}
{"sequence": "ETKTPYTVILI [SBDS_Y128_R126T]", "values": [{"measurement": "Screen", "setting": "c-Abl kinase domain; [3]", "value": 0.2291}]}
